Assay results taken from ChEMBL document CHEMBL3774317, “Design and synthesis of novel tamoxifen analogues that avoid CYP2D6 metabolism” (Eur J Med Chem, 2016).

Experiments:
K562 = test: Cytotoxicity against human K562 cells assessed as growth inhibition after 48 hrs by SRB assay; assay type: functional; settings: K562, 48 h
[1] = Cytotoxicity against human MOLT4 cells assessed as growth inhibition after 48 hrs by SRB assay; assay type: functional; settings: MOLT-4, 48 h
SR = test: Cytotoxicity against human SR cells assessed as growth inhibition after 48 hrs by SRB assay; assay type: functional
EKVX = test: Cytotoxicity against human EKVX cells assessed as growth inhibition after 48 hrs by SRB assay; assay type: functional
[2] = Cytotoxicity against human HOP62 cells assessed as growth inhibition after 48 hrs by SRB assay; assay type: functional; settings: HOP-62, 48 h
[3] = Cytotoxicity against human HOP92 cells assessed as growth inhibition after 48 hrs by SRB assay; assay type: functional; settings: HOP-92, 48 h
NCI-H23 = test: Cytotoxicity against human NCI-H23 cells assessed as growth inhibition after 48 hrs by SRB assay; assay type: functional; settings: NCI-H23, 48 h
NCI-H322M = test: Cytotoxicity against human NCI-H322M cells assessed as growth inhibition after 48 hrs by SRB assay; assay type: functional
[4] = Cytotoxicity against human HCC2998 cells assessed as growth inhibition after 48 hrs by SRB assay; assay type: functional; settings: HCC 2998, 48 h
[5] = Cytotoxicity against human HCT116 cells assessed as growth inhibition after 48 hrs by SRB assay; assay type: functional; settings: HCT-116, 48 h
KM12 = test: Cytotoxicity against human KM12 cells assessed as growth inhibition after 48 hrs by SRB assay; assay type: functional; settings: KM12, 48 h
MCF7 [6] = test: Antiproliferative activity against human MCF7 cells after 72 hrs by MTT assay; settings: mcf7
[7] = Cytotoxicity against human SF295 cells assessed as growth inhibition after 48 hrs by SRB assay; assay type: functional; settings: SF-295, 48 h
[8] = Cytotoxicity against human SNB75 cells assessed as growth inhibition after 48 hrs by SRB assay; assay type: functional; settings: SNB-75, 48 h
U-251 = test: Cytotoxicity against human U251 cells assessed as growth inhibition after 48 hrs by SRB assay; assay type: functional; settings: U-251, 48 h
[9] = Cytotoxicity against human LOXIMVI cells assessed as growth inhibition after 48 hrs by SRB assay; assay type: functional; settings: LOX IMVI
Malme-3M = test: Cytotoxicity against human MALME-3M cells assessed as growth inhibition after 48 hrs by SRB assay; assay type: functional
SK-MEL-2 = test: Cytotoxicity against human SK-MEL-2 cells assessed as growth inhibition after 48 hrs by SRB assay; assay type: functional; settings: SK-MEL-2, 48 h
SK-MEL-5 = test: Cytotoxicity against human SK-MEL-5 cells assessed as growth inhibition after 48 hrs by SRB assay; assay type: functional; settings: SK-MEL-5, 48 h
[10] = Cytotoxicity against human UACC257 cells assessed as growth inhibition after 48 hrs by SRB assay; assay type: functional; settings: UACC-257, 48 h
[11] = Cytotoxicity against human OVCAR4 cells assessed as growth inhibition after 48 hrs by SRB assay; assay type: functional; settings: OVCAR-4, 48 h
[12] = Cytotoxicity against human OVCAR5 cells assessed as growth inhibition after 48 hrs by SRB assay; assay type: functional; settings: OVCAR-5, 48 h
[13] = Cytotoxicity against human OVCAR8 cells assessed as growth inhibition after 48 hrs by SRB assay; assay type: functional; settings: OVCAR-8, 48 h
[14] = Cytotoxicity against human NCI-ADR-RES cells assessed as growth inhibition after 48 hrs by SRB assay; assay type: functional
[15] = Cytotoxicity against human RXF393 cells assessed as growth inhibition after 48 hrs by SRB assay; assay type: functional; settings: RXF 393, 48 h
SN12C = test: Cytotoxicity against human SN12C cells assessed as growth inhibition after 48 hrs by SRB assay; assay type: functional
[16] = Cytotoxicity against human TK10 cells assessed as growth inhibition after 48 hrs by SRB assay; assay type: functional; settings: TK-10, 48 h
[17] = Cytotoxicity against human UO31 cells assessed as growth inhibition after 48 hrs by SRB assay; assay type: functional; settings: UO-31, 48 h
[18] = Cytotoxicity against human DU145 cells assessed as growth inhibition after 48 hrs by SRB assay; assay type: functional; settings: DU-145, 48 h
MCF7 [19] = test: Cytotoxicity against human MCF7 cells assessed as growth inhibition after 48 hrs by SRB assay; assay type: functional; settings: MCF7, 48 h
MDA-MB-231 = test: Cytotoxicity against human MDA-MB-231 cells assessed as growth inhibition after 48 hrs by SRB assay; assay type: functional; settings: MDA-MB-231, 48 h
[20] = Cytotoxicity against human Hs 578T cells assessed as growth inhibition after 48 hrs by SRB assay; assay type: functional
T47D = test: Cytotoxicity against human T47D cells assessed as growth inhibition after 48 hrs by SRB assay; assay type: functional
[21] = read-out: LC50 (the source's name)

CCCCCCCCCC(=O)Oc1ccc(/C(=C(/C)c2ccccc2)c2ccc(OCCN3CCCC3)cc2)cc1
LC50 (K562): 36.2 µM
TGI (K562): 16.2 µM
GI50 [1]: 8.61 µM
LC50 [1]: 47.7 µM
TGI [1]: 20.3 µM
GI50 (SR): 9.08 µM
TGI (SR): 19 µM
CC50 (SR; [21]): 39.7 µM
GI50 (EKVX): 6.92 µM
LC50 (EKVX): 26.6 µM
TGI (EKVX): 13.6 µM
GI50 [2]: 8.75 µM
LC50 (concentration giving 50% net cell kill) [2]: 34.1 µM
TGI [2]: 17.3 µM
GI50 [3]: 7.01 µM
TGI [3]: 15.4 µM
CC50 [3, 21]: 33.8 µM
GI50 (NCI-H23): 7.74 µM
TGI (NCI-H23): 16.1 µM
CC50 (NCI-H23; [21]): 33.4 µM
GI50 (NCI-H322M): 8.04 µM
TGI (NCI-H322M): 15.7 µM
CC50 (NCI-H322M; [21]): 30.7 µM
GI50 [4]: 8.66 µM
TGI [4]: 17.2 µM
CC50 [4, 21]: 34.3 µM
GI50 [5]: 8.01 µM
LC50 [5]: 30.6 µM
TGI [5]: 15.7 µM
GI50 (KM12): 8.79 µM
LC50 (concentration giving 50% net cell kill) (KM12): 31.7 µM
TGI (KM12): 16.7 µM
IC50 (MCF7 [6]): < 1 µM
GI50 [7]: 7.93 µM
LC50 (concentration killing 50% of cells) [7]: 28.6 µM
TGI [7]: 15.1 µM
GI50 [8]: 6.55 µM
LC50 [8]: 27.9 µM
TGI [8]: 13.5 µM
GI50 (U-251): 8.01 µM
LC50 (50% lethal concentration) (U-251): 29.8 µM
TGI (U-251): 15.4 µM
GI50 [9]: 8.02 µM
LC50 (concentration killing 50% of cells) [9]: 27.2 µM
TGI [9]: 14.8 µM
GI50 (Malme-3M): 7.76 µM
TGI (Malme-3M): 15.7 µM
CC50 (Malme-3M; [21]): 31.9 µM
GI50 (SK-MEL-2): 9.49 µM
TGI (SK-MEL-2): 18.1 µM
CC50 (SK-MEL-2; [21]): 34.4 µM
GI50 (SK-MEL-5): 8.13 µM
TGI (SK-MEL-5): 14.9 µM
CC50 (SK-MEL-5; [21]): 27.3 µM
GI50 [10]: 9.23 µM
LC50 [10]: 30.6 µM
TGI [10]: 16.8 µM
GI50 [11]: 7.39 µM
LC50 [11]: 29.9 µM
TGI [11]: 14.9 µM
GI50 [12]: 8.56 µM
LC50 (concentration killing 50% of cells) [12]: 31.8 µM
TGI [12]: 16.5 µM
GI50 [13]: 9.78 µM
TGI [13]: 20.8 µM
CC50 [13, 21]: 44.2 µM
GI50 [14]: 8.03 µM
TGI [14]: 16.8 µM
CC50 [14, 21]: 35.4 µM
GI50 [15]: 6.95 µM
TGI [15]: 14.1 µM
CC50 [15, 21]: 28.8 µM
GI50 (SN12C): 9.15 µM
LC50 (concentration killing 50% of cells) (SN12C): 35.1 µM
TGI (SN12C): 17.9 µM
GI50 [16]: 8.86 µM
LC50 [16]: 31.3 µM
TGI [16]: 16.7 µM
GI50 [17]: 6.72 µM
TGI [17]: 14.2 µM
CC50 [17, 21]: 29.8 µM
GI50 [18]: 8 µM
LC50 [18]: 27.5 µM
TGI [18]: 14.8 µM
GI50 (MCF7 [19]): < 5 µM
TGI (MCF7 [19]): 10.3 µM
CC50 (MCF7 [19]; [21]): 28 µM
GI50 (MDA-MB-231): 1.02 µM
LC50 (MDA-MB-231): 39.9 µM
TGI (MDA-MB-231): 20.2 µM
GI50 [20]: 9.55 µM
TGI [20]: 32.2 µM
CC50 [20, 21]: > 50 µM
LC50 (T47D): 39.9 µM
TGI (T47D): 14.4 µM
